# Measured values published in ChEMBL document CHEMBL3885881, “DrugMatrix”.
# Species: Rattus norvegicus
# Experiment: DrugMatrix - Regimen: Daily Repeat
# Type: toxicity, organism-based, Sprague-Dawley
# Parameters: regimen Daily Repeat, gender Male, age 6-8 weeks
# Details: in vivo, po, 450 mg/kg, route oral GAVAGE, dose level High, […]; for ABSOLUTE BASOPHIL / ABSOLUTE EOSINOPHIL / ABSOLUTE LYMPHOCYTE / ABSOLUTE MONOCYTE / ABSOLUTE SEGMENTED NEUTROPHIL / BASOPHIL / EOSINOPHIL / ERYTHROCYTE COUNT / HEMATOCRIT / HEMOGLOBIN / LEUKOCYTE COUNT / LYMPHOCYTE / MEAN CORPUSCULAR HEMOGLOBIN / MEAN CORPUSCULAR HEMOGLOBIN CONCENTRATION / MEAN CORPUSCULAR VOLUME / MONOCYTE / NEUTROPHIL / NUCLEATED RED BLOOD CELLS / PLATELET COUNT: tissue Blood; for ALANINE AMINOTRANSFERASE / ALBUMIN / ALKALINE PHOSPHATASE / ASPARTATE AMINOTRANSFERASE / BLOOD UREA NITROGEN / CARBON DIOXIDE / CHLORIDE / CHOLESTEROL / CREATINE PHOSPHOKINASE / CREATININE / GLUCOSE / LACTATE DEHYDROGENASE / LIPASE / PHOSPHORUS / POTASSIUM / SODIUM / TOTAL BILIRUBIN / TOTAL PROTEIN / URIC ACID: tissue Plasma
smiles,measurement,setting,value
CC(c1cc2ccccc2s1)N(O)C(N)=O (stereo unspecified) [ZILEUTON],ABSOLUTE BASOPHIL,"72 h, time 3 day",0 CELLS/uL
same,ABSOLUTE EOSINOPHIL,"72 h, time 3 day",0 CELLS/uL
same,ABSOLUTE LYMPHOCYTE,"72 h, time 3 day",15031 CELLS/uL
same,ABSOLUTE MONOCYTE,"72 h, time 3 day",0 CELLS/uL
same,ABSOLUTE SEGMENTED NEUTROPHIL,"72 h, time 3 day",1769 CELLS/uL
same,BASOPHIL,"72 h, time 3 day",0%
same,EOSINOPHIL,"72 h, time 3 day",0%
same,ERYTHROCYTE COUNT,"72 h, time 3 day",5.39 x10E6/uL
same,HEMATOCRIT,"72 h, time 3 day",32.93%
same,HEMOGLOBIN,"72 h, time 3 day",13.6 G/DL
same,LEUKOCYTE COUNT,"72 h, time 3 day",16.8 x10E3/uL
same,LYMPHOCYTE,"72 h, time 3 day",89.33%
same,MEAN CORPUSCULAR HEMOGLOBIN,"72 h, time 3 day",25.27 pg
same,MEAN CORPUSCULAR HEMOGLOBIN CONCENTRATION,"72 h, time 3 day",41.33 G/DL
same,MEAN CORPUSCULAR VOLUME,"72 h, time 3 day",61.1 fL
same,MONOCYTE,"72 h, time 3 day",0%
same,NEUTROPHIL,"72 h, time 3 day",10.67%
same,NUCLEATED RED BLOOD CELLS,"72 h, time 3 day",0.33 /100WBC
same,PLATELET COUNT,"72 h, time 3 day",1249 x10E3/uL
same,ALANINE AMINOTRANSFERASE,"72 h, time 3 day",87.67 u/L
same,ALBUMIN,"72 h, time 3 day",3.67 G/DL
same,ALKALINE PHOSPHATASE,"72 h, time 3 day",458 u/L
same,ASPARTATE AMINOTRANSFERASE,"72 h, time 3 day",128 u/L
same,BLOOD UREA NITROGEN,"72 h, time 3 day",17.67 mg/dL
same,CARBON DIOXIDE,"72 h, time 3 day",25.33 mmol/L
same,CHLORIDE,"72 h, time 3 day",103.67 MEQ/L
same,CHOLESTEROL,"72 h, time 3 day",65.67 mg/dL
same,CREATINE PHOSPHOKINASE,"72 h, time 3 day",774.33 u/L
same,CREATININE,"72 h, time 3 day",0.18 mg/dL
same,GLUCOSE,"72 h, time 3 day",148.33 mg/dL
same,LACTATE DEHYDROGENASE,"72 h, time 3 day",301.67 u/L
same,LIPASE,"72 h, time 3 day",10.67 u/L
same,PHOSPHORUS,"72 h, time 3 day",12.57 mg/dL
same,POTASSIUM,"72 h, time 3 day",5.93 MEQ/L
same,SODIUM,"72 h, time 3 day",142.9 MEQ/L
same,TOTAL BILIRUBIN,"72 h, time 3 day",0.2 mg/dL
same,TOTAL PROTEIN,"72 h, time 3 day",5.13 G/DL
same,URIC ACID,"72 h, time 3 day",1.47 mg/dL
same,ABSOLUTE BASOPHIL,"120 h, time 5 day",0 CELLS/uL
same,ABSOLUTE EOSINOPHIL,"120 h, time 5 day",45 CELLS/uL
same,ABSOLUTE LYMPHOCYTE,"120 h, time 5 day",16299.33 CELLS/uL
same,ABSOLUTE MONOCYTE,"120 h, time 5 day",207.67 CELLS/uL
same,ABSOLUTE SEGMENTED NEUTROPHIL,"120 h, time 5 day",1114.67 CELLS/uL
same,BASOPHIL,"120 h, time 5 day",0%
same,EOSINOPHIL,"120 h, time 5 day",0.33%
same,ERYTHROCYTE COUNT,"120 h, time 5 day",5.62 x10E6/uL
same,HEMATOCRIT,"120 h, time 5 day",34.17%
same,HEMOGLOBIN,"120 h, time 5 day",13.87 G/DL
same,LEUKOCYTE COUNT,"120 h, time 5 day",17.67 x10E3/uL
same,LYMPHOCYTE,"120 h, time 5 day",92.33%
same,MEAN CORPUSCULAR HEMOGLOBIN,"120 h, time 5 day",24.73 pg
same,MEAN CORPUSCULAR HEMOGLOBIN CONCENTRATION,"120 h, time 5 day",40.6 G/DL
same,MEAN CORPUSCULAR VOLUME,"120 h, time 5 day",60.87 fL
same,MONOCYTE,"120 h, time 5 day",1%
same,NEUTROPHIL,"120 h, time 5 day",6.33%
same,NUCLEATED RED BLOOD CELLS,"120 h, time 5 day",0 /100WBC
same,PLATELET COUNT,"120 h, time 5 day",1205.33 x10E3/uL
same,ALANINE AMINOTRANSFERASE,"120 h, time 5 day",64.33 u/L
same,ALBUMIN,"120 h, time 5 day",4.1 G/DL
same,ALKALINE PHOSPHATASE,"120 h, time 5 day",388 u/L
same,ASPARTATE AMINOTRANSFERASE,"120 h, time 5 day",79.33 u/L
same,BLOOD UREA NITROGEN,"120 h, time 5 day",16 mg/dL
same,CARBON DIOXIDE,"120 h, time 5 day",37.67 mmol/L
same,CHLORIDE,"120 h, time 5 day",99.33 MEQ/L
same,CHOLESTEROL,"120 h, time 5 day",79 mg/dL
same,CREATINE PHOSPHOKINASE,"120 h, time 5 day",125 u/L
same,CREATININE,"120 h, time 5 day",0.15 mg/dL
same,GLUCOSE,"120 h, time 5 day",142 mg/dL
same,LACTATE DEHYDROGENASE,"120 h, time 5 day",75 u/L
same,LIPASE,"120 h, time 5 day",10.33 u/L
same,PHOSPHORUS,"120 h, time 5 day",10.97 mg/dL
same,POTASSIUM,"120 h, time 5 day",6.65 MEQ/L
same,SODIUM,"120 h, time 5 day",142.6 MEQ/L
same,TOTAL BILIRUBIN,"120 h, time 5 day",0.2 mg/dL
same,TOTAL PROTEIN,"120 h, time 5 day",5.8 G/DL
same,URIC ACID,"120 h, time 5 day",1.7 mg/dL
